According to PubChem BioAssay (NCI):
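Tested at 5 concentrations; 48 h exposure; 96-well plates; endpoints linearly interpolated, else capped at highest concentration. Abbreviation: GI50, concentration required for 50% inhibition of growth. At the TGI there is no net growth.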

What was measured:
Experiment in all cases: NCI tumour cell line growth inhibition, 48 h
786-0 renal = test system: 786-0 renal
A498 renal = test system: A498 renal
A549 NSCLC = test system: A549 NSCLC
ACHN renal = test system: ACHN renal
BT-549 breast = test system: BT-549 breast
CAKI-1 renal = test system: CAKI-1 renal
CCRF-CEM leukemia = test system: CCRF-CEM leukemia
COLO 205 colon = test system: COLO 205 colon
DU-145 prostate = test system: DU-145 prostate
EKVX NSCLC = test system: EKVX NSCLC
HCC-2998 colon = test system: HCC-2998 colon
HCT-116 colon = test system: HCT-116 colon
HCT-15 colon = test system: HCT-15 colon
HOP-62 NSCLC = test system: HOP-62 NSCLC
HOP-92 NSCLC = test system: HOP-92 NSCLC
HS 578T breast = test system: HS 578T breast
HT29 colon = test system: HT29 colon
IGROV1 ovarian = test system: IGROV1 ovarian
K-562 leukemia = test system: K-562 leukemia
KM12 colon = test system: KM12 colon
M14 melanoma = test system: M14 melanoma
MALME-3M melanoma = test system: MALME-3M melanoma
MCF7 breast = test system: MCF7 breast
MDA-MB-231 breast = test system: MDA-MB-231 breast
MDA-MB-435 = test system: MDA-MB-435
MOLT-4 leukemia = test system: MOLT-4 leukemia
NCI-H226 lung = test system: NCI-H226 lung
NCI-H23 lung = test system: NCI-H23 lung
NCI-H460 lung = test system: NCI-H460 lung
NCI-H522 lung = test system: NCI-H522 lung
NCI/ADR-RES ovarian = test system: NCI/ADR-RES ovarian
OVCAR-3 ovarian = test system: OVCAR-3 ovarian
OVCAR-4 ovarian = test system: OVCAR-4 ovarian
OVCAR-5 ovarian = test system: OVCAR-5 ovarian
OVCAR-8 ovarian = test system: OVCAR-8 ovarian
PC-3 prostate = test system: PC-3 prostate
RXF 393 renal = test system: RXF 393 renal
SF-268 CNS = test system: SF-268 CNS
SF-295 CNS = test system: SF-295 CNS
SF-539 CNS = test system: SF-539 CNS
SK-MEL-2 melanoma = test system: SK-MEL-2 melanoma
SK-MEL-28 melanoma = test system: SK-MEL-28 melanoma
SK-MEL-5 melanoma = test system: SK-MEL-5 melanoma
SK-OV-3 ovarian = test system: SK-OV-3 ovarian
SN12C renal = test system: SN12C renal
SNB-19 CNS = test system: SNB-19 CNS
SNB-75 CNS = test system: SNB-75 CNS
SR leukemia = test system: SR leukemia
SW-620 colon = test system: SW-620 colon
T-47D breast = test system: T-47D breast
TK-10 renal = test system: TK-10 renal
U251 CNS = test system: U251 CNS
UACC-257 melanoma = test system: UACC-257 melanoma
UACC-62 melanoma = test system: UACC-62 melanoma
UO-31 renal = test system: UO-31 renal
HL-60(TB) leukemia = test system: HL-60(TB) leukemia
LOX IMVI melanoma = test system: LOX IMVI melanoma
RPMI-8226 leukemia = test system: RPMI-8226 leukemia

For `Cn1nc2ccc(Nc3cc(=O)[nH]c4ccc5nn(C)nc5c34)cc2n1`, the TGI (786-0 renal) was > 100 µM, the TGI (A498 renal) was > 100 µM and the TGI (A549 NSCLC) was > 100 µM. The TGI (ACHN renal) was > 100 µM, the TGI (BT-549 breast) was > 100 µM and the TGI (CAKI-1 renal) was > 100 µM. The TGI (CCRF-CEM leukemia) was > 100 µM, the TGI (COLO 205 colon) was > 100 µM and the TGI (DU-145 prostate) was > 100 µM. For the same compound, the TGI (EKVX NSCLC) was > 100 µM, the TGI (HCC-2998 colon) was > 100 µM and the TGI (HCT-116 colon) was > 100 µM. The TGI (HCT-15 colon) was > 100 µM, the TGI (HOP-62 NSCLC) was > 100 µM and the TGI (HOP-92 NSCLC) was > 100 µM. For the same compound, the TGI (HS 578T breast) was > 100 µM, the TGI (HT29 colon) was > 100 µM and the TGI (IGROV1 ovarian) was > 100 µM. For the same compound, the TGI (K-562 leukemia) was > 100 µM, the TGI (KM12 colon) was > 100 µM and the TGI (M14 melanoma) was > 100 µM. For the same compound, the TGI (MALME-3M melanoma) was > 100 µM, the TGI (MCF7 breast) was > 100 µM and the TGI (MDA-MB-231 breast) was > 100 µM. The TGI (MDA-MB-435) was > 100 µM, the TGI (MOLT-4 leukemia) was > 100 µM and the TGI (NCI-H226 lung) was > 100 µM. For the same compound, the TGI (NCI-H23 lung) was > 100 µM, the TGI (NCI-H460 lung) was > 100 µM and the TGI (NCI-H522 lung) was > 100 µM. The TGI (NCI/ADR-RES ovarian) was > 100 µM, the TGI (OVCAR-3 ovarian) was > 100 µM and the TGI (OVCAR-4 ovarian) was > 100 µM. For the same compound, the TGI (OVCAR-5 ovarian) was > 100 µM, the TGI (OVCAR-8 ovarian) was > 100 µM and the TGI (PC-3 prostate) was > 100 µM. For the same compound, the TGI (RXF 393 renal) was > 100 µM, the TGI (SF-268 CNS) was > 100 µM and the TGI (SF-295 CNS) was > 100 µM. The TGI (SF-539 CNS) was > 100 µM, the TGI (SK-MEL-2 melanoma) was > 100 µM and the TGI (SK-MEL-28 melanoma) was > 100 µM. The TGI (SK-MEL-5 melanoma) was > 100 µM, the TGI (SK-OV-3 ovarian) was > 100 µM and the TGI (SN12C renal) was > 100 µM. The TGI (SNB-19 CNS) was > 100 µM, the TGI (SNB-75 CNS) was > 100 µM and the TGI (SR leukemia) was > 100 µM. For the same compound, the TGI (SW-620 colon) was > 100 µM, the TGI (T-47D breast) was > 100 µM and the TGI (TK-10 renal) was > 100 µM. The TGI (U251 CNS) was > 100 µM, the TGI (UACC-257 melanoma) was > 100 µM and the TGI (UACC-62 melanoma) was > 100 µM. For the same compound, the TGI (UO-31 renal) was > 100 µM.
`COc1cc2c3c(n(CCCN)c(=O)c2cc1OC)-c1ccc([N+](=O)[O-])cc1C3=O` showed a GI50 (786-0 renal) of 1.66 µM, a TGI (786-0 renal) of 3.55 µM and a GI50 (A498 renal) of 17.4 µM. The TGI (A498 renal) was 34.1 µM, the GI50 (A549 NSCLC) was 9.88 µM and the TGI (A549 NSCLC) was 34.7 µM. It also gave a GI50 (ACHN renal) of 5.2 µM, a TGI (ACHN renal) of 16.7 µM and a GI50 (BT-549 breast) of 13.4 µM. The TGI (BT-549 breast) was 28 µM, the GI50 (CAKI-1 renal) was 4.7 µM and the TGI (CAKI-1 renal) was 19.4 µM. The GI50 (CCRF-CEM leukemia) was 0.15 µM, the TGI (CCRF-CEM leukemia) was 2.73 µM and the GI50 (COLO 205 colon) was 10.1 µM. For the same compound, the TGI (COLO 205 colon) was 22.8 µM, the GI50 (DU-145 prostate) was 2.11 µM and the TGI (DU-145 prostate) was 10.6 µM. For the same compound, the GI50 (EKVX NSCLC) was 20 µM, the TGI (EKVX NSCLC) was 40.7 µM and the GI50 (HCC-2998 colon) was 2.29 µM. The TGI (HCC-2998 colon) was 13.6 µM, the GI50 (HCT-116 colon) was 1.32 µM and the TGI (HCT-116 colon) was 2.74 µM. It also gave a GI50 (HCT-15 colon) of 5.83 µM, a TGI (HCT-15 colon) of 19 µM and a GI50 (HL-60(TB) leukemia) of 17.8 µM. It also gave a TGI (HL-60(TB) leukemia) of 37.8 µM, a GI50 (HOP-62 NSCLC) of 0.613 µM and a TGI (HOP-62 NSCLC) of 2.26 µM. The GI50 (HOP-92 NSCLC) was 10.5 µM, the TGI (HOP-92 NSCLC) was 30.5 µM and the GI50 (HS 578T breast) was 22.5 µM. The TGI (HS 578T breast) was 46.1 µM, the GI50 (HT29 colon) was 5.07 µM and the TGI (HT29 colon) was 21.4 µM. The GI50 (K-562 leukemia) was 5.57 µM, the TGI (K-562 leukemia) was 31.3 µM and the GI50 (KM12 colon) was 14.6 µM. The TGI (KM12 colon) was 31 µM, the GI50 (LOX IMVI melanoma) was 2.28 µM and the TGI (LOX IMVI melanoma) was 16.6 µM. For the same compound, the GI50 (M14 melanoma) was 5.77 µM, the TGI (M14 melanoma) was 19.4 µM and the GI50 (MALME-3M melanoma) was 16.7 µM. For the same compound, the TGI (MALME-3M melanoma) was 40.5 µM, the GI50 (MCF7 breast) was 0.317 µM and the TGI (MCF7 breast) was 1.96 µM. For the same compound, the GI50 (MDA-MB-231 breast) was 18.9 µM, the TGI (MDA-MB-231 breast) was 34.6 µM and the GI50 (MDA-MB-435) was 15.9 µM. The TGI (MDA-MB-435) was 37.5 µM, the GI50 (MOLT-4 leukemia) was 0.434 µM and the TGI (MOLT-4 leukemia) was 16.2 µM. For the same compound, the GI50 (NCI-H226 lung) was 17.4 µM, the TGI (NCI-H226 lung) was 38.3 µM and the GI50 (NCI-H23 lung) was 5.13 µM. The TGI (NCI-H23 lung) was 25.1 µM, the GI50 (NCI-H460 lung) was 0.572 µM and the TGI (NCI-H460 lung) was 2.35 µM. It also gave a GI50 (NCI-H522 lung) of 0.489 µM, a TGI (NCI-H522 lung) of 10.8 µM and a GI50 (NCI/ADR-RES ovarian) of 14 µM. For the same compound, the TGI (NCI/ADR-RES ovarian) was > 100 µM, the GI50 (OVCAR-3 ovarian) was 16.5 µM and the TGI (OVCAR-3 ovarian) was 37.5 µM. The GI50 (OVCAR-4 ovarian) was 11.5 µM, the TGI (OVCAR-4 ovarian) was 33.7 µM and the GI50 (OVCAR-5 ovarian) was 15.9 µM. For the same compound, the TGI (OVCAR-5 ovarian) was 30.7 µM, the GI50 (OVCAR-8 ovarian) was 2 µM and the TGI (OVCAR-8 ovarian) was 5.41 µM. For the same compound, the GI50 (PC-3 prostate) was 7.63 µM, the TGI (PC-3 prostate) was 22.9 µM and the GI50 (RPMI-8226 leukemia) was 1.75 µM. It also gave a TGI (RPMI-8226 leukemia) of 4.91 µM, a GI50 (RXF 393 renal) of 19.2 µM and a TGI (RXF 393 renal) of 43.7 µM. The GI50 (SF-268 CNS) was 7.74 µM, the TGI (SF-268 CNS) was 24.4 µM and the GI50 (SF-295 CNS) was 0.912 µM. For the same compound, the TGI (SF-295 CNS) was 17.9 µM, the GI50 (SF-539 CNS) was 3.76 µM and the TGI (SF-539 CNS) was 14.9 µM. It also gave a GI50 (SK-MEL-2 melanoma) of 0.0173 µM, a TGI (SK-MEL-2 melanoma) of 5.19 µM and a GI50 (SK-MEL-28 melanoma) of 17.8 µM. It also gave a TGI (SK-MEL-28 melanoma) of 34.3 µM, a GI50 (SK-MEL-5 melanoma) of 5.23 µM and a TGI (SK-MEL-5 melanoma) of 19.5 µM. It also gave a GI50 (SK-OV-3 ovarian) of 12.2 µM, a TGI (SK-OV-3 ovarian) of 28.7 µM and a GI50 (SN12C renal) of 11.7 µM. It also gave a TGI (SN12C renal) of 27.6 µM, a GI50 (SNB-19 CNS) of 3.11 µM and a TGI (SNB-19 CNS) of 18.3 µM. The GI50 (SNB-75 CNS) was 16.3 µM, the TGI (SNB-75 CNS) was 34.7 µM and the GI50 (SR leukemia) was 0.0731 µM. The TGI (SR leukemia) was 10.4 µM, the GI50 (SW-620 colon) was 2.12 µM and the TGI (SW-620 colon) was 19.1 µM. For the same compound, the GI50 (T-47D breast) was 3.86 µM, the TGI (T-47D breast) was 20.2 µM and the GI50 (TK-10 renal) was 20.7 µM. For the same compound, the TGI (TK-10 renal) was 41.4 µM, the GI50 (U251 CNS) was 4.94 µM and the TGI (U251 CNS) was 19.8 µM. For the same compound, the GI50 (UACC-257 melanoma) was 31 µM, the TGI (UACC-257 melanoma) was > 100 µM and the GI50 (UACC-62 melanoma) was 11.5 µM. For the same compound, the TGI (UACC-62 melanoma) was 25.1 µM, the GI50 (UO-31 renal) was 0.222 µM and the TGI (UO-31 renal) was 6.22 µM.
